According to patent publication US7871987B2, “Ester derivatives of ascorbic and 2-keto acid saccharides” (Dow Corning Corporation, priority 2004, dated 2011):
Where “and” joins values, the source holds several entries; their conditions need not be identical. Equal values may be shown once.

Legend:
[1] = system: Melanoderm tissue model MEL 300 A; test: Melanin content / skin lightening assay in MelanoDerm tissue model; format: cell-based, human; conditions: for Melanin concentration vs. water: Day 10, after 6 applications; for Melanin Concentration at Day 10 (Avg.): after 6 applications, 10 μL in DMI (kojic acid 25 μL, 1% in water)
Description: (§1) This example illustrates cell viability properties and efficacy of skin lightening formulations according to the present invention. For purposes of these examples, DP2 and DP15 both refer to a bis-ascorbyl ester of a (10-carboxydecyl)-terminated dimethylsiloxane, but with the former having two degrees of polymerization, and the latter having an average of 15 degrees of polymerization (15+/−5). In particular, three formulations according to the present invention, water (a negative control), 1% kojic acid (Sigma, Wis.) in water (positive control), and 2.3% ascorbyl palmitate in DMI (dimethyl isosorbide from Uniqema Americas, representative of a currently commercially available skin-lightening compound), were assayed and compared for cell viability and skin lightening efficacy (see Table 4). The assays were carried out using Melanoderm tissue model MEL 300 A cell line (MelanoDerm™ tissue model available from MatTek, Ashland, Mass.). This melanoderm model consists of normal, human-derived epidermal keratinocytes and melanocytes that have been co-cultured to form a multilayer, highly differentiated model of human epidermis.
Table 6 (see FIG. 4(a)) sets forth the […] after 6 applications of each formulation as indicated. Melanin concentration (ug/ml) was lower (p<0.05) in the positive control (kojic acid) and in Ascorbyl palmitate, DP2, and DP2+ascorbic acid. Table 7 (see FIG. 4(b) also sets forth the melanocyte concentration on Day 10, after six applications of the test formulations. Melanin concentration (ug/ml) was higher (p<0.05) in DP2, with no difference from DP2+ascorbic acid or DPI 5. However, p value for DP15 had high variability and statistical difference was borderline (p=0.06)

[2] = Dispersibility in carriers (caprylic/capric triglyceride, cyclopentasiloxane, deionized water); format: physicochemical
Procedure: a) Approximately 7.2 g of a sample of a material of the present invention comprising an undecyl ascorbate group on one end of the short chain dimethylsiloxane (Formula=Si(CH3)3-[Si(CH3)2]8—[CH2]10—COO-Ascorbate), with a calculated molecular weight of 1082) was weighed into a glass vial. Liponate CG (INCI name: caprylic/capric triglyceride) was added to the vial to bring the net weight to 20 g. The vial was warmed in a water bath set at 50° C. […] A sample of ascorbyl palmitate obtained from DSM was also tested for dispersibility in Liponate CG. Several concentrations were tested. The lowest concentration tested was made by weighing approximately 2.3 g of ascorbyl palmitate into a glass vial and then adding caprylic/capric triglyceride to bring the net weight to 20 g. […] The silicone was added to the vial to bring the net weight to 20 g. […] This mixture thickened upon cooling to room temperature. To determine if the mixture was a stable dispersion or an unstable suspension, the mixture was centrifuged in a bench top laboratory centrifuge at 3000 rpm for approximately 30 minutes. […] The amount of white material was small (much less than the amount of siloxane undecyl ascorbate that was used) and it was later determined that the white material was most likely unreacted ascorbic acid. A sample of ascorbyl palmitate obtained from DSM was tested for dispersibility in Dow Corning® 245 Fluid. Several concentrations were tested. The lowest concentration tested was made by weighing approximately 2.3 g of ascorbyl palmitate into a glass vial and then adding Dow Corning® 245 Fluid to bring the net weight to 20 g. […] Deionized water was added to bring the total net weight to 3.5 g. The vial was placed in a water bath set at 60° C. and the disiloxane material began to disperse after a few minutes. The vial was pulled out of the water bath periodically over the next 10-15 minutes. […] Upon cooling the vial was examined to determine if all of the test material had been dispersed. It was difficult to tell due to the hazy appearance of the sample. The experiment was repeated with approximately 0.17 of the disiloxane diluted to 3.5 g with deionized water. […] Ascorbyl palmitate obtained from DSM was tested for dispersibility in deionized water.

[3] = system: Melanoderm tissue model MEL 300 A; test: Viability by MTT assay (MatTek MTT ET-50 protocol); format: cell-based, human; conditions: for MTT reading (individual readings): listed as DP2/DMI
Description: as §1
Duplicate samples of each of the formulations in Table 4 were dosed and tested for 48 hours for cell viability by MTT assay (MatTek MTT ET-50 protocol). The volume of water and kojic acid used was 25 ul.

[4] = approximately 2.3 g brought to 20 g (lowest concentration), 50° C. to 90° C. for 20-30 minutes
[5] = first duplicate sample, 10 uL dose, 48 hours
[6] = second duplicate sample, 10 uL dose, 48 hours

**Q.** For O=c1cc(CO)occ1O [Kojic Acid, kojic acid], which “Melanin concentration vs. water” value ([1]; p<0.05) is on record?
**A.** The value was “lower”.

**Q.** And the “Melanin Concentration at Day 10 (Avg.)” value [1]?
**A.** The value was 25.20 µg/mL.

**Q.** Which results are given for CCCCCCCCCCCCCCCC(=O)OC[C@H](O)[C@H]1OC(=O)C(O)=C1O [Ascorbyl Palmitate, Ascorbyl palmitate, reference compound]?
**A.** dispersibility in Dow Corning 245 Fluid (cyclopentasiloxane) [2, 4]: would not disperse; dispersibility in Liponate CG (caprylic/capric triglyceride) [2, 4]: would not disperse; dispersibility in deionized water ([2]; concentrations comparable to those tested for the disiloxane test material): not dispersible; Melanin concentration vs. water ([1]; p<0.05): lower; Melanin Concentration at Day 10 (Avg.) [1]: 34.14 µg/mL; % Viability (total average) ([3]; human, 48 h, 2.3 %): 96.04%; Total average (MTT reading) ([3]; human, 48 h, 2.3 %): 1.4495

**Q.** With C[Si](C)(CCCCCCCCCCC(=O)OCC(O)C1OC(=O)C(O)=C1O)O[Si](C)(C)CCCCCCCCCCC(=O)OCC(O)C1OC(=O)C(O)=C1O (stereo not shown) [DP2, bis-ascorbyl ester of a (10-carboxydecyl)-terminated dimethylsiloxane] as the compound, how does the “dispersibility in deionized water” value ([2]; approximately 0.17 diluted to 3.5 g, warmed in water bath) read?
**A.** The value was “thinner, less hazy dispersion”.

**Q.** And the “dispersibility in deionized water” value ([2]; approximately 0.35 g brought to 3.5 g, water bath 60° C.)?
**A.** The value was “thick hazy dispersion”.

**Q.** And the “stability of dispersions in deionized water” value ([2]; both dispersions, no sign of separation or settling)?
**A.** The value was “stable for several weeks”.

**Q.** What about the “Melanin concentration vs. water” value ([1]; p<0.05) of the same compound?
**A.** The value was “lower”.

**Q.** What about the “Melanin concentration vs. ascorbyl palmitate” value ([1]; Day 10, after six applications, p<0.05) of the same compound?
**A.** The value was “higher”.

**Q.** What about the “Melanin Concentration at Day 10 (Avg.)” value [1] of the same compound?
**A.** The value was 44.40 µg/mL.

**Q.** And the cytotoxicity ([3]; 10 uL dose, in DMI)?
**A.** The cytotoxicity was “does not cause cytotoxicity”.

**Q.** And the “Total average (MTT reading)” value ([3]; both duplicate samples, 10 uL dose, 48 hours)?
**A.** Its value is 1.514.

**Q.** And the “% Viability (total average)” value ([3]; both duplicate samples, vs water, 10 uL dose, 48 hours)?
**A.** Its value is 100.31%.

**Q.** What about the “Average (MTT reading)” value [3, 5] of the same compound?
**A.** The value was 1.417.

**Q.** What about the “MTT reading (individual readings)” value [3, 5] of the same compound?
**A.** Its value is 1.433 and 1.401.

**Q.** And the “% Viability” value ([3]; first duplicate sample, vs water, 10 uL dose, 48 hours)?
**A.** Its value is 91.24%.

**Q.** What about the cell viability ([3]; in DMI) of the same compound?
**A.** Its cell viability is greater than 90%.

**Q.** And the “Average (MTT reading)” value [3, 6]?
**A.** The value was 1.611.

**Q.** What about the “MTT reading (individual readings)” value [3, 6] of the same compound?
**A.** The value was 1.619 and 1.603.

**Q.** What about the “% Viability” value ([3]; second duplicate sample, vs water, 10 uL dose, 48 hours) of the same compound?
**A.** Its value is 109.93%.
